Laboratory results taken from patent EP0608419A1, “TRANSOCULAR PREPARATION” (FUJISAWA PHARMACEUTICAL CO., LTD., priority 1991, dated 1993).
Where two headings read alike, the source gives them in different places.

Experiments:
[1] = Concentration of test compound in eye tissue and blood after transocular administration of ophthalmic solution (EIA); type: in vivo, JW (clean) strain female rabbits; conditions: topical or ocular, read-out: Mean concentration in tissue ± S.E.
Protocol: The resultant preparation was filled in an instillator.
(§1) c The experiment was carried out using JW (clean) strain female rabbits (body weight: 2.3 to 2.6 kg), each test group containing three rabbits. In this experiment, the rabbits were allowed to feed themselves and drink water freely both before and after each administration.
In case of transocular administration of ophthalmic solution, the rabbits were fixed on the cangue fixer and applied to each eye with one drop (about 0.05 ml) of the above ophthalmic solution using an instillator. The administration was repeated five times at 5-minute intervals. After the final administration, the rabbits were brought back to their cage. In these administrations, total dosage was 1 mg/rabbit. At 30 minutes after the final administration, blood was collected from the ear vein of the rabbits. Immediately, the rabbits were anesthetized by injection of "Nembutal" (Trademark) into the ear vein to bleed to death by cutting off their head and then the eyeballs were taken out therefrom.
(§2) The eyeballs taken out were washed with physiological saline solution under ice-cooling, and subsequently divided into various parts (i.e. cornea, aqueous humor in anterior chamber of eye, iris, lens, vitreum, retinochoroid and sclera). After measuring the weight of each part, phosphate buffer solution (pH 7.4) was added thereto and then the parts were homogenized using a glass-made "Potter-type homogenizer" (Trademark).
(§3) The determination of a concentration of the test compound in each sample was carried out by the two-step Enzyme-linked immunosorbent assay (EIA) using purified polyclonal antibody against the test compound.

[2] = test system: intraocular vascularization; assay: Suppression of induced intraocular vascularization (cupric chloride pellet and aminoadipic acid) by eye drops, histological observation; type: in vivo, rabbits (Dutch); conditions: 2 mg/ml in isotonic phosphate buffer solution (pH 8), eye drops twice a day for 12 days; both eyes of five rabbits
Protocol: Both eyes of five rabbits (Dutch) were used for this experiment. Into the vitreum of the rabbits, 0.2 ml of sterilized air was injected. […] At the same time as transplantation, 1 mg of aminoadipic acid dissolved in 0.2 ml of physiological saline solution was injected into the vitreum, by which vascularization in the eyes (i.e. in the vitreum) was induced. Twenty-four hours later, isotonic phosphate buffer solution (pH 8, 2 mg/ml) which contained the same test compound used in Example 1 was administered drop by drop to each rabbit. The same administration was repeated twice a day for consecutive 12 days. After the final administration on the 12th day, the eyeballs were taken out therefrom and observed histologically to find whether the vascularization was suppressed or not.

[3] = Concentration of test compound in eye tissue and blood after continuous subcutaneous administration by implanted mini-pump (EIA); type: in vivo, JW (clean) strain female rabbits; conditions: sc, 2.5 mg/animal/day, read-out: Mean concentration in tissue ± S.E.
Protocol: as §1
On the other hand, in case of continuous subcutaneous administration, after the rabbits were anesthetized by injection of "Nembutal" (Trademark, 0.5 to 0.6 ml/kg i.v.), they were clipped their back side hair and then were incised their clipped parts about 3 cm long with a surgical knife. […] Subsequently, the incised parts of the rabbits were sutured with silk thread, and then the rabbits were brought back to their cage. In this case, total dosage was 2.5 mg/rabbit/day. The day when the mini-pump was implanted was defined as "Day 0". On Day 5, the rabbits were anesthetized by injection of "Nembutal" (Trademark) into the ear vein to bleed to death, and then the eyeballs were taken out therefrom. In this experiment, blood was collected for measuring a concentration of the test compound in blood on each Day 1, 4 and 5.
as §2, §3

- concentration at 0.5 h ([1]; Aqueous humor in anterior chamber of eye, 30 min. after transocular administration of ophthalmic solution (total 1 mg/rabbit), n = 6): 141 ± 59.7 ng/g
- concentration at 0.5 h ([1]; Cornea, 30 min. after transocular administration of ophthalmic solution (2 mg/ml, total 1 mg/rabbit), n = 6): 1.56 ± 0.73 ng/g
- concentration at 0.5 h ([1]; Lens, 30 min. after transocular administration of ophthalmic solution (total 1 mg/rabbit), n = 6): 12.4 ± 2.11 ng/g
- concentration at 0.5 h ([1]; Retinochoroid, 30 min. after transocular administration of ophthalmic solution (total 1 mg/rabbit), n = 6): 40.2 ± 9.4 ng/g
- concentration at 0.5 h ([1]; Sclera, 30 min. after transocular administration of ophthalmic solution (total 1 mg/rabbit), n = 6): 0.78 ± 0.78 ng/g
- concentration at 0.5 h ([1]; Vitreum, 30 min. after transocular administration of ophthalmic solution (total 1 mg/rabbit), n = 6): 9.99 ± 2.37 ng/g
- concentration at 0.5 h ([1]; Whole blood (n = 3), 30 min. after transocular administration of ophthalmic solution (total 1 mg/rabbit)): 19.6 ± 4.22 ng/g
- concentration at 120 h ([3]; Aqueous humor in anterior chamber of eye, Day 5 of continuous subcutaneous administration (2.5 mg/rabbit/day), n = 6): 0.79 ± 0.62 ng/g
- concentration at 120 h ([3]; Cornea, Day 5 of continuous subcutaneous administration (2.5 mg/rabbit/day) by mini-pump, n = 6): 2.87 ± 0.52 ng/g
- concentration at 120 h ([3]; Lens, Day 5 of continuous subcutaneous administration (2.5 mg/rabbit/day), n = 6): 0.2 ± 0.08 ng/g
- concentration at 120 h ([3]; Retinochoroid, Day 5 of continuous subcutaneous administration (2.5 mg/rabbit/day), n = 6): 0.6 ± 0.26 ng/g
- concentration at 120 h ([3]; Sclera, Day 5 of continuous subcutaneous administration (2.5 mg/rabbit/day), n = 6): 1.06 ± 0.27 ng/g
- concentration at 120 h ([3]; Vitreum, Day 5 of continuous subcutaneous administration (2.5 mg/rabbit/day), n = 6): 1.19 ± 0.23 ng/g
- concentration at 24 h ([3]; Whole blood, Day 1 (n=3), continuous subcutaneous administration (2.5 mg/rabbit/day)): 30.6 ± 6.13 ng/g
- concentration at 96 h ([3]; Whole blood, Day 4 (n=3), continuous subcutaneous administration (2.5 mg/rabbit/day)): 13.7 ± 9.74 ng/g
- concentration at 120 h ([3]; Whole blood, Day 5 (n=3), continuous subcutaneous administration (2.5 mg/rabbit/day)): 22.5 ± 4.12 ng/g
Structure (SMILES): CNC(=O)OC1CCC2(CO2)C(C2(C)OC2CC=C(C)C)C1OC (stereo not drawn) [test compound, 6-Methylcarbamoyloxy-5-methoxy-4-[2-methyl-3-(3-methyl-2-butenyl)oxiranyl]-1-oxaspiro[2.5]octane]
- eyeballs in which intraocular vascularization was suppressed thoroughly [2]: 42.9%
- eyeballs in which the vascularization was suppressed partially or thoroughly [2]: 85.7%
